Test results: ChEMBL document CHEMBL4419120, “Bitter taste receptors” (2015)

Tests used:
Format in all cases: functional, cell-based
[1] = biological target: T1, Taste receptor type 2 member 10 (Homo sapiens) (UniProt Q9NYW0); test: Activity at human TAS2R10 expressed in HEK-293T-Galpha16-gustducin44 cells assessed as threshold concentration of compound at which point receptor detects compounds by measuring calcium response by FLIPR assay
T1 sequence (whole entry): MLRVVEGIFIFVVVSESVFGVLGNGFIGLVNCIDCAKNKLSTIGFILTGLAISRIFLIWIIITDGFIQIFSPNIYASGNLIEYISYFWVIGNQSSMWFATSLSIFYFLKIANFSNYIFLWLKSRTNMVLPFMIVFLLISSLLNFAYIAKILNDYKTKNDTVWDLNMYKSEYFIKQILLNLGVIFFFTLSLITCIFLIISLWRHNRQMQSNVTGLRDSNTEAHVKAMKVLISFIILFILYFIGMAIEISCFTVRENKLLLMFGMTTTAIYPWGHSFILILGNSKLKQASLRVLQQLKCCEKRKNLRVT

[2] = biological target: T2, Taste receptor type 2 member 46 (Homo sapiens) (UniProt P59540); test: Activity at human TAS2R46 expressed in HEK-293T-Galpha16-gustducin44 cells assessed as threshold concentration of compound at which point receptor detects compounds by measuring calcium response by FLIPR assay
T2 sequence (whole entry): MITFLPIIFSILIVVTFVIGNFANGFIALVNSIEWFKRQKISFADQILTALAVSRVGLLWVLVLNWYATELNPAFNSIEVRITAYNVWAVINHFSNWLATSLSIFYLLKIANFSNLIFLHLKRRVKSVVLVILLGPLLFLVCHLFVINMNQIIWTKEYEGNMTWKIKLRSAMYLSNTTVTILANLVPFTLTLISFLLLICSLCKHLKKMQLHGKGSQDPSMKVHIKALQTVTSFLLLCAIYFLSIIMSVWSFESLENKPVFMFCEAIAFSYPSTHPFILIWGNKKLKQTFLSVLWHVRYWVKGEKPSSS

[3] = biological target: T3, Taste receptor type 2 member 19 (Homo sapiens) (UniProt P59542); test: Activity at human TAS2R48 expressed in HEK-293T-Galpha16-gustducin44 cells assessed as threshold concentration of compound at which point receptor detects compounds by measuring calcium response by FLIPR assay
T3 sequence (whole entry): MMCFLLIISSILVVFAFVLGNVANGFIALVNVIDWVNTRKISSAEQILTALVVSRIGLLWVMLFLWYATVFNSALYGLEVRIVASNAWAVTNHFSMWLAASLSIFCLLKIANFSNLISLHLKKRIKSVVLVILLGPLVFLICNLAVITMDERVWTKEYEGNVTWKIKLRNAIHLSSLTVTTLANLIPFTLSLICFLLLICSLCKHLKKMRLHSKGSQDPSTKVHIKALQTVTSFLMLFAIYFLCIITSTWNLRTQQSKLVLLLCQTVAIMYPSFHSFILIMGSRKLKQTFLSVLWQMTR

[4] = biological target: T4, Taste receptor type 2 member 45 (Homo sapiens) (UniProt P59539); test: Activity at human TAS2R45 expressed in HEK-293T-Galpha16-gustducin44 cells assessed as threshold concentration of compound at which point receptor detects compounds by measuring calcium response by FLIPR assay
T4 sequence (whole entry): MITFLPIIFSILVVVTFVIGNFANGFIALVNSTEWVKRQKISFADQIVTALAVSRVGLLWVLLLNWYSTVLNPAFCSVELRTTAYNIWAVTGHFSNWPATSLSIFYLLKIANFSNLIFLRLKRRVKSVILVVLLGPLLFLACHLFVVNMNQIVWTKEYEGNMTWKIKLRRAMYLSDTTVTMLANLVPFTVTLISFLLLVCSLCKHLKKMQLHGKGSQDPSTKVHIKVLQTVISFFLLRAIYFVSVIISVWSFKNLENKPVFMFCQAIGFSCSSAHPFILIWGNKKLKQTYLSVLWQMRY

Activity [1]: 0.01 mM | Activity [2]: 0.001 mM | Activity [3]: 0.03 mM | Activity [4]: 0.003 mM
SMILES: CC1=C[C@@H]2[C@@H]3C4C(=C(C)[C@@H]3[C@@]13[C@@H]2[C@@](C)(O)CC[C@H]1[C@H](C)C(=O)O[C@@H]13)[C@H]1OC(=O)[C@@H](C)[C@@H]1CC[C@]4(C)O (some centres undefined)
